Experiments:
pPKB S473 in A2058 cells = test: In-cell Western blot, pPKB S473; assay type: cell-based; conditions: treated for 1 hour, normalized to α-tubulin
Method: (§1) Cells are fixed with 4% paraformaldehyde for 30 minutes at room temperature, washed 2 times with 1% BSA in PBS, permeabilized with 0.1% Triton X-100 in PBS/1% BSA for 30 minutes at room temperature and blocked with 5% goat serum in PBS/1% BSA/0.1% Triton X-100 for 30 minutes at room temperature. […] Cells are washed 3 times 5 minutes with PBS/1% BSA/0.1% triton and plate scanned with the Odyssey Infrared Scanning system using both 700 and 800 nm channels. […] To correct for background staining in the data analysis wells are treated only with secondary antibodies.
(§2) For data analysis the mean background signal from channel 700 nm and 800 nm are subtracted from each signal in channel 700 nm and 800 nm, respectively.
(§3) IC50 values of each compound are determined by plotting the normalized pPBK S473 and pS6 S235/S236 signals, respectively, versus the compound concentrations (in logarithmic scale) and then by fitting a sigmoidal dose-response curve with variable slope to the data using GraphPad™ Prism.

[1] = test system: pS6 S235/S236 in A2058 cells; test: In-cell Western blot, pS6 S235/S236; assay type: cell-based; conditions: treated for 1 hour, normalized to α-tubulin
Method: as §1, §2, §3

[2] = test system: female NMRI mice, nonepileptic (sham-SE) and epileptic (pilo-SE); test: Maximal electroshock seizure threshold test (MEST); assay type: in vivo, mouse; conditions: for CC50 / threshold increase: Phenobarbital; for increase of the seizure threshold in MEST: 5 mg/kg rapamycin; for increase of the threshold: rapamycin after intraperitoneal injections
Method: A total of 166 adult female NMRI mice were used obtained from Charles River (Sulzfeld, Germany) at a weight range of 21-25 g (mice). Animals were kept under the following conditions: Housing: Animals were housed in groups of max. 8 mice under controlled conditions (temperature: 22±1° C.; humidity: 50% 60%/), under a 12-h light-dark cycle (lights on at 6:00 a.m.). Feeding: Standard laboratory chow (Altromin 1324 standard diet, Altromin Spezialfutter GmbH, Lage, Germany) was provided ad libitum. Drinking water: Tap water was provided ad libitum.
The MEST determines a population seizure threshold in groups of ˜20 animals and not the threshold for an individual animal. In the present study, the MEST was determined by a staircase procedure as previously described. A stimulator (BMT Medizintechnik, Berlin, Germany) that delivered a constant current (adjustable from 1-200 mA regardless of the impedance of the animal) with sinusoidal pulses (50/sec) for 0.2 sec was used.
Current administration was performed via bilateral transcorneal stimulation (using copper electrodes). Before transcorneal stimulation, a drop of tetracaine solution (2%) was administered to the eyes of the mouse for local anesthesia. Two minutes later, the mouse was restrained by hand to press the copper electrodes on both corneas while the stimulus was applied by stepping on a foot pedal switch connected with the stimulator. Electrodes were covered with soft leather and soaked with saline before each current application. […] The first stimulation was started with a current near to the control threshold.
3 (HCl): 40/100 mg in 10 ml (Suspension; 5% PEG 400 and 2% Tween 80, HPBCD (10%6)) • Cpd. 8 (HCl): 12.5/25 mg in 10 ml (5% PEG 400 and 2% Tween 80, HPBCD (10%))
Statistical analysis were calculated using Student's t-test. All tests were used two-sided; a P<0.05 was considered significant.
We performed no special tests for the determination of adverse effects. Mice were observed about 30 min after injection in their home cages for obvious sedation or reduction of wellbeing. Five minutes before electrical stimulation mice were again observed in their home cages and two minutes before stimulation during handling procedure for treatment with local anaesthesia. Every obvious variation from normal behavior was noted. Only phenobarbital induced noticeable sedation which lasted for more than 60 min. All other test drugs (including vehicle solutions) were tolerated without any obvious adverse effects.

[3] = 50 mg/kg Levetiracetam i.p., pretreatment 1 h

Row | Compound | IC50 (pPKB S473 in A2058 cells; Homo sapiens, A2058, 1 h) [nM] | IC50 ([1]; Homo sapiens, A2058, 1 h) [nM] | IC50 (pPKB S473 in A2058 cells; Homo sapiens) [nM] | other results
1 | Nc1ncc(-c2nc(N3CCNCC3)nc(N3CCOCC3)n2)c(C(F)F)n1 [Compound 13, 4-(difluoromethyl)-5-(4-morpholino-6-(piperazin-1-yl)-1,3,5-triazin-2-yl)pyrimidin-2-amine] |  |  |  | IC50 (pPKB S473 in A2058 cells): 37 nM; IC50 [1]: 120 nM
2 | CC[C@@H]1COCCN1c1nc(-c2cnc(N)cc2C(F)F)nc(N2CCOC[C@H]2CC)n1 [Compound 54, 5-[4,6-bis[(3R)-3-ethylmorpholin-4-yl]-1,3,5-triazin-2-yl]-4-(difluoromethyl)pyridin-2-amine] | 354 | 209 |  | 
3 | C[C@H]1COCCN1c1nc(-c2cnc(N)nc2C(F)(F)F)nc(N2CCOCC2)n1 [reference compound] |  |  | 91 | IC50 ([1]; Homo sapiens): 164 nM
4 | Nc1cc(C(F)F)c(-c2cc(N3CCOCC3)nc(N3CCOCC3)n2)cn1 [Compound 16, 4-(difluoromethyl)-5-(2,6-dimorpholinopyrimidin-4-yl)pyridin-2-amine] |  | 184 | 207 | 
5 | CC[C@H]1COCCN1c1nc(-c2cnc(N)cc2C(F)F)nc(N2CCOC[C@H]2C)n1 [Compound 85, 4-(difluoromethyl)-5-[4-[(3S)-3-ethylmorpholin-4-yl]-6-[(3R)-3-methylmorpholin-4-yl]-1,3,5-triazin-2-yl]pyridin-2-amine] |  | 241 |  | 
6 | Nc1ncc(-c2nc(N3CCOCC3)nc(N3CCSCC3)n2)c(C(F)F)n1 [Compound 21, 4-(difluoromethyl)-5-(4-morpholino-6-thiomorpholino-1,3,5-triazin-2-yl)pyrimidin-2-amine] | 57 | 216 |  | 
7 | C[C@@H]1COCCN1c1nc(-c2cnc(N)cc2C(F)F)nc(N2[C@@H](C)COC[C@@H]2C)n1 [Compound 79, 4-(difluoromethyl)-5-[4-[(3S,5S)-3,5-dimethylmorpholin-4-yl]-6-[(3R)-3-methylmorpholin-4-yl]-1,3,5-triazin-2-yl]pyridin-2-amine] | 200 | 136 |  | 
8 | CC[C@@H]1COCCN1c1nc(-c2cnc(N)cc2C(F)F)nc(N2CCOC[C@H]2C)n1 [Compound 86, 4-(difluoromethyl)-5-[4-[(3R)-3-ethylmorpholin-4-yl]-6-[(3R)-3-methylmorpholin-4-yl]-1,3,5-triazin-2-yl]pyridin-2-amine] | 231 |  |  | 
9 | C[C@@H]1COCCN1c1nc(-c2cnc(N)cc2C(F)F)nc(N2[C@H](C)COC[C@H]2C)n1 [Compound 78, 4-(difluoromethyl)-5-[4-[(3R,5R)-3,5-dimethylmorpholin-4-yl]-6-[(3R)-3-methylmorpholin-4-yl]-1,3,5-triazin-2-yl]pyridin-2-amine] | 506 | 392 |  | 
10 | COC[C@@H]1COCCN1c1nc(-c2cnc(N)cc2C(F)F)nc(N2CCOC[C@H]2C)n1 [Compound 46, 4-(difluoromethyl)-5-[4-[(3R)-3-(methoxymethyl)morpholin-4-yl]-6-[(3R)-3-methylmorpholin-4-yl]-1,3,5-triazin-2-yl]pyridin-2-amine] | 956 | 426 |  | 
11 | CC[C@@H](C(N)=O)N1CCCC1=O [Levetiracetam, reference compound] |  |  |  | Threshold difference between nonepileptic and epileptic [2, 3]: −4%; Threshold difference between vehicle and drug threshold, nonepileptic [2, 3]: 21%
12 | Nc1cc(C(F)(F)F)c(-c2nc(N3CCOCC3)cc(N3CCOCC3)n2)cn1 [reference compound] |  | 665 | 555 | 
13 | Nc1cc(C(F)F)c(-c2nc(N3CCOCC34CCC4)nc(N3CCOCC34CCC4)n2)cn1 [Compound 55, 5-[4,6-bis(8-oxa-5-azaspiro[3.5]nonan-5-yl)-1,3,5-triazin-2-yl]-4-(difluoromethyl)pyridin-2-amine] | 942 | 526 |  | 
14 | Nc1cc(C(F)F)c(-c2nc(N3CCOCC3)nc(N3CCSCC3)n2)cn1 [Compound 20, 4-(difluoromethyl)-5-(4-morpholino-6-thiomorpholino-1,3,5-triazin-2-Yl)pyridin-2-amine] | 146 | 250 |  | 
15 | C[C@@H]1COC[C@H](C)N1c1nc(-c2cnc(N)cc2C(F)F)nc(N2[C@H](C)COC[C@@H]2C)n1 [Compound 40, 5-[4,6-bis[(3R,5S)-3,5-dimethylmorpholin-4-yl]-1,3,5-triazin-2-yl]-4-(difluoromethyl)pyridin-2-amine] |  |  | 252 | IC50 ([1]; Homo sapiens): 160 nM
16 | C[C@@H]1COCCN1c1nc(-c2cnc(N)cc2C(F)F)nc(N2C3COCC2C3)n1 [Compound 50, 4-(difluoromethyl)-5-[4-[(3R)-3-methylmorpholin-4-yl]-6-(3-oxa-6-azabicyclo[3.1.1]heptan-6-yl)-1,3,5-triazin-2-yl]pyridin-2-amine] | 1560 | 407 |  | 
17 | C[C@H]1COC[C@H](C)N1c1nc(-c2cnc(N)cc2C(F)F)nc(N2[C@@H](C)COC[C@@H]2C)n1 [Compound 83, 5-[4,6-bis[(3S,5S)-3,5-dimethylmorpholin-4-yl]-1,3,5-triazin-2-yl]-4-(difluoromethyl)pyridin-2-amine] |  |  | 379 | IC50 ([1]; Homo sapiens): 294 nM
18 | CC1(C)COCCN1c1nc(-c2cnc(N)cc2C(F)F)nc(N2CCOCC2)n1 [Compound 42, 4-(difluoromethyl)-5-[4-(3,3-dimethylmorpholin-4-yl)-6-morpholino-1,3,5-triazin-2-yl]pyridin-2-amine] | 54 | 45 |  | 
19 | CCC1(c2ccccc2)C(=O)NC(=O)NC1=O [Phenobarbital, reference compound] |  |  |  | CC50 ([2]; epileptic mice): 26.56 mA; threshold increase ([2]; epileptic mice): 66%; CC50 ([2]; nonepileptic mice): 25.7 mA; threshold increase ([2]; nonepileptic mice): 69%; duration of noticeable sedation ([2]; mice observed in home cages after injection): more than 60 min
20 | Nc1cc(C(F)F)c(-c2nc(N3CCNCC3)nc(N3CCOCC3)n2)cn1 [Compound 12, 4-(difluoromethyl)-5-(4-morpholino-6-(piperazin-1-yl)-1,3,5-triazin-2-yl)pyridin-2-amine] |  |  |  | IC50 (pPKB S473 in A2058 cells): 219 nM; IC50 [1]: 407 nM
21 | CC1(C)COCCN1c1nc(-c2cnc(N)cc2C(F)F)nc(N2CCOCC2(C)C)n1 [Compound 39, 5-[4,6-bis(3,3-dimethylmorpholin-4-yl)-1,3,5-triazin-2-yl]-4-(difluoromethyl)pyridin-2-amine] | 106 | 47 |  | 
22 | C[C@H]1COCCN1c1cc(-c2cnc(N)cc2C(F)F)nc(N2CCOCC2)n1 [Compound 27, (S)-4-(difluoromethyl)-5-(6-(3-methylmorpholino)-2-morpholinopyrimidin-4-yl)pyridin-2-amine] |  |  | 614 | IC50 ([1]; Homo sapiens): 766 nM
23 | C[C@@H]1COCCN1c1nc(-c2cnc(N)cc2C(F)F)nc(N2CCOCC23CCC3)n1 [Compound 88, 4-(difluoromethyl)-5-[4-[(3R)-3-methylmorpholin-4-yl]-6-(8-oxa-5-azaspiro[3.5]nonan-5-yl)-1,3,5-triazin-2-yl]pyridin-2-amine] | 271 | 192 |  | 
24 | C[C@H]1COCCN1c1nc(-c2cnc(N)nc2C(F)F)nc(N2CCOCC2)n1 [Compound 9, (S)-4-(difluoromethyl)-5-(4-(3-methylmorpholino)-6-morpholino-1,3,5-triazin-2-yl)pyrimidin-2-amine] |  |  | 35 | IC50 ([1]; Homo sapiens): 72 nM
25 | C[C@H]1COCCN1c1nc(-c2cnc(N)cc2C(F)F)cc(N2CCOCC2)n1 [Compound 31, (S)-4-(difluoromethyl)-5-(2-(3-methylmorpholino)-6-morpholinopyrimidin-4-yl)pyridin-2-amine] |  |  | 146 | IC50 ([1]; Homo sapiens): 124 nM
26 | C[C@H]1COCCN1c1nc(-c2cnc(N)nc2C(F)F)cc(N2CCOCC2)n1 [Compound 32, (S)-4′-(difluoromethyl)-2-(3-methylmorpholino)-6-morpholino-[4,5′-bipyrimidin]-2′-amine] |  |  | 100 | IC50 ([1]; Homo sapiens): 387 nM
27 | Nc1ncc(-c2cc(N3CCOCC3)nc(N3CCOCC3)n2)c(C(F)F)n1 [Compound 17, 4′-(difluoromethyl)-2,6-dimorpholino-[4,5′-bipyrimidin]-2′-amine] |  | 149 |  | 
28 | CO[C@H]1C[C@@H]2CC[C@@H](C)[C@@](O)(O2)C(=O)C(=O)N2CCCC[C@H]2C(=O)O[C@H]([C@H](C)C[C@@H]2CC[C@@H](O)[C@H](OC)C2)CC(=O)[C@H](C)/C=C(\C)[C@@H](O)[C@@H](OC)C(=O)[C@H](C)C[C@H](C)/C=C/C=C/C=C/1C [rapamycin, reference compound] |  |  |  | increase of the seizure threshold in MEST ([2]; epileptic mice): 5%; increase of the seizure threshold in MEST ([2]; nonepileptic mice): 13%; increase of the threshold ([2]; epileptic mice): no effect; increase of the threshold ([2]; nonepileptic mice): 20%
